Experimental data from paper PMC5320394, “Development of a Novel Formulation That Improves Preclinical Bioavailability of Tenofovir Disoproxil Fumarate” (Journal of Pharmaceutical Sciences, 2017).
Counter-ions that a name gives are not always drawn. Like-named read-outs stand apart in the source and are kept apart here.

Assays:
Caco-2 cell monolayers = assay type: in vitro ADME
Protocol: (§3) Caco-2 monolayer experiments were performed as previously described[30] with a few modifications. […] Following incubation, the media was replaced to remove dead cells and prevent the formation of multiple layers of cells settling on the filter. Media was then changed every 2-3 days and plates were used in experiments after a total of 21 days from initial seeding. Monolayer integrity was checked before and after each experiment using a Millicell-ERS instrument to determine the TEER across the monolayer and to ensure that there was no substantial change in monolayer integrity throughout the duration of an experiment. On the day of the experiment, the TEER was assessed and the media in each plate was replaced with warm HBSS (pH 7) and allowed to equilibrate (37°C, 30 min). Apical (for apical-to-basolateral [A-to-B] transport) chambers were replaced with HBSS containing 10 μM (final concentration, n = 3 reps) aqueous solution of drug and inhibitors. Samples were taken from both apical and basolateral compartments at 120 min and diluted into an appropriate solvent to allow drug quantitation using LC-MS/MS.
(§4) Samples from permeability assays were also diluted into Mobile Phase A prior to analysis.
(§5) Mobile Phase A was 3/1/96 acetonitrile/acetic acid/water and Mobile Phase B was 96/1/3 acetonitrile/acetic acid/water. Rather than isocratic elution, a gradient program was used. The gradient program held at 0% B for 1 min, ramped to 98% B from 1 to 2 min, held at 98% B from 2 to 3 min, and then returned to initial conditions. Q1/Q3 ions for TFV-ME and TDF were 404.0/270.0 and 520.1/270.0, respectively.

rat intestinal S9 = test: TDF stability in rat intestinal S9 fraction and effect of inhibitors; conditions: for inhibition of TDF hydrolysis: rat S9
Protocol: (§6) TDF solutions were prepared at 10 μM in rat or human intestinal S9 fraction (0.5 mg protein/mL). Inhibitors were added to the solutions. […] Control samples included buffer, human S9, or rat S9 solutions with only TDF. Samples were incubated at 37°C for 0, 5, 10, 15, 20, and 30 min and then analyzed by LC-MS/MS for TDF, TFV-ME, TFV, and PP (to quantify stability).
(§7) Samples from S9 incubations were analyzed using the LC-MS/MS conditions described earlier for Caco-2 samples.

human intestinal S9 = test: TDF stability in human intestinal S9 fraction and effect of inhibitors; conditions: for inhibition of TDF hydrolysis: human S9
Protocol: as §6, §7

[1] = test system: porcine pancrelipase (PL); test: Hydrolysis of TDF by PL and effect of enzyme inhibitors; assay type: biochemical; conditions: for protection of TDF against PL hydrolysis: PP or MP together or alone, FaSSIF with PL; for half-life at 10 µM: pig, with none, Control, 10 μM TDF, PL, 37°C, no inhibitor, read-out: TDF t1/2
Protocol: TDF solutions were prepared at 10 μM and incubated in triplicate at 37°C in FaSSIF containing PL at 480 U/mL with and without inhibitors. Inhibitors were added at 10% vol/vol for the oils (sesame, olive, safflower, soybean, and coconut); at 10 mM for PP, MP, and EM1; and at 0.05 mM/0.002 mM for EDTA/PMSF. Controls consisted of TDF in transport media or FaSSIF with and without PL. Samples were incubated at 37°C and quenched with acetonitrile at 10, 15, 20, and 30 min. For each time point, the % TDF or % TFV-ME remaining was determined by LC-MS/MS as described below.

[2] = test system: rat intestinal homogenates; design: method as in PMID 12124311; conditions: cited from earlier work
[3] = pH stability of TDF in SGF and FaSSIF; assay type: physicochemical; conditions: 1 mM TDF
Protocol: The pH of fasted state simulated intestinal fluid (FaSSIF)[27] was adjusted with 2M NaOH to pH of 6.8, 9, and 11. Simulated gastric fluid (SGF) was used as is at pH 1.2. TDF solutions (100 mM) were prepared in 99% dimethyl sulfoxide. TDF solutions (1 mM) were prepared by 100-fold dilution in FaSSIF and SGF. The pH of the final solution was not measured.
The TDF stability study at pH 1.2 was measured at 37°C in triplicate at 0, 15, 30, 60, 90, and 120 min. The TDF stability studies at pH 6.8, 9, and 11 were measured at 37°C in triplicate at 0, 30, 60, 120, and 240 min. Samples (5 μL) were quenched by diluting 200-fold with 4°C 0.1% formic acid (35% MeOH). These samples were analyzed by liquid chromatography tandem mass spectrometry (LC-MS/MS).

[4] = test system: porcine pancrelipase (PL); test: Stability in SGF and FaSSIF with and without PL; assay type: in vitro ADME; conditions: 37°C; for stability in SGF and FaSSIF: without PL, up to 120 min, TDF 10 μM
Protocol: Samples were incubated at 37°C and quenched with acetonitrile at 0, 15, 30, 60, 90, and 120 min. For each time point, the % TDF or % TFV-ME remaining was determined by LC-MS/MS as described below.

MDCK-MDR1 cells (P-gp) = test: MDCK-MDR1 efflux studies; assay type: in vitro ADME, canine; conditions: for Papp, B to A / Papp, A to B: (SEM)
Protocol: (§1) MDCK-MDR1 cells (Netherlands Cancer Institute) were seeded at a density of 3 × 10^5 cells per well onto microporous polycarbonate membranes in 12-well Costar Transwell plates (Corning, Inc.). The cells were incubated for 3 days during which time they formed confluent monolayers. Monolayer integrity was checked using a Millicell-ERS instrument (Millipore) to determine the transepithelial electrical resistance (TEER) across the monolayer. […] […] Competency of the P-gp efflux transporter was confirmed by assay of propranolol (nonsubstrate) and amprenavir (substrate). Cell monolayers were incubated in triplicate with shaking (160 rpm) at 37°C for 2 h. Samples were removed from the apical and basolateral compartments after incubation and assayed for test compound concentrations by LC-MS/MS.
(§2) Conditions were similar to those used for Caco-2 analyses. Differences included the use of a Phenomenex Synergi Hydro-RP column (4 μm, 2.1 × 50 mm) at 60°C, mobile phases of aqueous 0.2% formic acid (A) and neat methanol (B), and a rapid 0.9 min gradient from 0% to 95% B.

P-gp [5] = test: MDCK-MDR1 efflux studies; assay type: in vitro ADME, canine; conditions: dog; for Papp B→A at 120 min, 5 µM: (SEM)
Protocol: as §1, §2

[6] = test system: Caco-2 cell monolayers (P-gp); test: in vitro; assay type: in vitro ADME; conditions: Caco-2, 10 μM TDF, 120 min, no inhibitor (CsA 0.00 µM)
Protocol: as §3, §4, §5

P-gp [7] = test: in vitro; assay type: in vitro ADME; conditions: human, Caco-2, pH 7, with none (CsA 0.00 µM)
Protocol: as §3, §4, §5

[8] = design: method as in ref 33 = [33]; 33 Arimilli M. Kim C. Bischofberger N. Dougherty J. Synthesis, in vitro biological evaluation and oral bioavailability of prodrugs of the antiretroviral agent 9-[2-(phosphonomethoxy)-propyl] adenine; conditions: cited from earlier work
[9] = design: method as in PMID 9660984; conditions: oral administration of TDF; mice; cited from earlier work
[10] = design: method as in PMID 11557462, PMID 15217303; conditions: humans, cited from earlier work
[11] = design: method as in ref 50 = [50]; 50 Center for Drug Evaluation and Research (2001) Clinical Pharmacology and Pharmaceutics Review Application Number 21-356, page 78 Available at: http://www.accessdata.fda.gov/drugsatfda_docs/nda/2001; conditions: rat, literature, normalized for dose; cited from earlier work
in vitro [12] = conditions: human, intestinal S9 fraction
Protocol: as §6, §7

in vitro [13] = conditions: rat, intestinal S9 fraction
Protocol: as §6, §7

[14] = cited from earlier work
[15] = dog, in vivo; cited from earlier work
in vivo = test: in vivo; design: species or system Sprague-Dawley rats; conditions: rat, given IV; for AUC: male, Sprague-Dawley, plasma, iv, AUC0-8h
lymphocytes = test system: lymphocytes; design: method as in PMID 9517941; conditions: cited from earlier work
[16] = Caco-2, versus no inhibitor, 1 mM BNPP, 1 mM PP, 0.05% wt/vol EM1, 0.5 mg/mL TPGS, 10 μM CsA, 2 μM GF918
[17] = Caco-2 A to B, 10 μM, 120 min, 1 mM BNPP, 1 mM PP, 0.05% wt/vol EM1, 0.5 mg/mL TPGS, 10 μM CsA, 2 μM GF918
[18] = rat S9, 10 μM TDF, 37°C, 10 μM BNPP, 100 μM PMSF, 0.05% wt/vol EM1, 1 mM PP, 1 mM MP, 1 mM EP
[19] = human S9, 10 μM TDF, 37°C, 10 μM BNPP, 100 μM PMSF, 0.05% wt/vol EM1, 1 mM PP, 1 mM MP, 1 mM EP
[20] = MDCK-MDR1, with none (0 µM GF918)

O=[N+]([O-])c1ccc(OP(=O)(O)Oc2ccc([N+](=O)[O-])cc2)cc1 [BNPP, Bis-para-nitrophenylphosphate]
Fold Increase, TDF (A to B transport) (Caco-2 cell monolayers; [16]): 6.2 fold | Fold Increase, TFV Family (A to B transport) (Caco-2 cell monolayers; [16]): 3.1 fold | % Measured Basolateral, TDF (median), with inhibitor(s) (Caco-2 cell monolayers; [17]): 4.88% | % Measured Basolateral, TNF (median), with inhibitor(s) (Caco-2 cell monolayers; [17]): 0.00% | % Measured Basolateral, TNF-ME (median), with inhibitor(s) (Caco-2 cell monolayers; [17]): 0.55% | TDF Rate Constant with inhibitor (rat intestinal S9): -0.016 min⁻¹ | TDF Rate Constant with inhibitor (human intestinal S9): -0.009 min⁻¹

CCOC(=O)c1ccc(O)cc1 [EP, ethylparaben]
TDF Rate Constant with inhibitor (rat intestinal S9; [18]): -1.023 min⁻¹ | inhibition of TDF hydrolysis (rat intestinal S9; 100 μM PMSF, 1 mM EP, 1 mM MP): did not show any substantial inhibition | TDF Rate Constant with inhibitor (human intestinal S9; [19]): -0.210 min⁻¹ | inhibition of TDF hydrolysis (human intestinal S9; 100 μM PMSF, 1 mM EP, 1 mM MP): did not show any substantial inhibition

COC(=O)c1ccc(O)cc1 [MP, methylparaben]
protection of TDF against PL hydrolysis [1]: did not protect TDF | TDF Rate Constant with inhibitor (rat intestinal S9; [18]): -1.297 min⁻¹ | inhibition of TDF hydrolysis (rat intestinal S9; 100 μM PMSF, 1 mM EP, 1 mM MP): did not show any substantial inhibition | TDF Rate Constant with inhibitor (human intestinal S9; [19]): -1.065 min⁻¹ | inhibition of TDF hydrolysis (human intestinal S9; 100 μM PMSF, 1 mM EP, 1 mM MP): did not show any substantial inhibition

O=S(=O)(F)Cc1ccccc1 [PMSF, phenylmethylsulfonyl fluoride]
TDF Rate Constant with inhibitor (rat intestinal S9; [18]): -1.064 min⁻¹ | inhibition of TDF hydrolysis (rat intestinal S9; 100 μM PMSF, 1 mM EP, 1 mM MP): did not show any substantial inhibition | TDF Rate Constant with inhibitor (human intestinal S9; [19]): -0.185 min⁻¹ | inhibition of TDF hydrolysis (human intestinal S9; 100 μM PMSF, 1 mM EP, 1 mM MP): did not show any substantial inhibition

CCCOC(=O)c1ccc(O)cc1 [PP, propylparaben]
protection of TDF against PL hydrolysis [1]: did not protect TDF | inhibition of TDF metabolism [2]: 94.5% | TDF Rate Constant with inhibitor (rat intestinal S9; [18]): -0.196 min⁻¹ | TDF Rate Constant with inhibitor (human intestinal S9; [19]): -0.035 min⁻¹

CC(C)OC(=O)OCOP(=O)(CO[C@H](C)Cn1cnc2c(N)ncnc21)OCOC(=O)OC(C)C [TDF, Tenofovir disoproxil fumarate]
half-life at 1 mM ([3]; FaSSIF pH 6.8, 37°C): 16.6 ± 3.4 h | half-life at 1 mM ([3]; FaSSIF pH 9, 37°C): 2.9 ± 0.2 h | half-life at 1 mM ([3]; FaSSIF pH 11, 37°C): 0.0567 ± 0.102 h | half-life at 1 mM ([3]; SGF pH 1.2, 37°C): > 55 h | half-life at 10 µM ([4]; pig, porcine pancrelipase (PL) in FaSSIF, 10 μM, PL 480 U/mL): 2 ± 2.3 min | stability in SGF and FaSSIF [4]: stable | half-life at 10 µM ([1]; porcine pancrelipase (PL) in FaSSIF, FaSSIF): 6.35 min | half-life at 10 µM ([1]; porcine pancrelipase (PL) in transport media, transport media): 7.59 min | Papp, B to A (MDCK-MDR1 cells (P-gp); MDCK-MDR1, 0 μM GF918, 120 min): 295.0 (6.1) nm/s | Papp A→B at 120 min, 5 µM (P-gp [5]; MDCK-MDR1, with GF918 2 µM): 2.25 ×10⁻⁶ cm/s | efflux ratio at 2 h, 5 µM (P-gp [5]; MDCK-MDR1, with GF918 2 µM): 1.5 | Papp B→A at 120 min, 5 µM (P-gp [5]; MDCK-MDR1, with GF918 2 µM, MDCK-MDR1, 2 μM GF918, 120 min): 3.41 ×10⁻⁶ cm/s | Papp A→B at 120 min, 5 µM (P-gp [5]; [20]): 0.67 ×10⁻⁶ cm/s | efflux ratio at 2 h, 5 µM (P-gp [5]; [20]): 44.2 | Papp B→A at 120 min, 5 µM (P-gp [5]; MDCK-MDR1, with none (0 µM GF918), MDCK-MDR1, 0 μM GF918, 120 min): 29.5 ×10⁻⁶ cm/s | TDF Papp, A to B [6]: 0.698 ×10⁻⁶ cm/s | Papp A→B at 120 min, 10 µM (P-gp [7]; Caco-2, 10 μM TDF, 120 min, no inhibitor (CsA 0.00 µM)): 0.7 ×10⁻⁶ cm/s | efflux ratio at 120 min, 10 µM (P-gp [7]; read-out: TDF E.R. (efflux ratio)): 12 | Papp B→A at 120 min, 10 µM (P-gp [7]; read-out: TDF Papp, B to A): 8.16 ×10⁻⁶ cm/s | % Measured Basolateral, TDF (median) (Caco-2 cell monolayers; Caco-2 A to B, 10 μM, 120 min, no esterase inhibitor, no P-gp inhibitor): 0.78% | half-life ([8]; pH 2.2, 37°C): > 150 h | half-life ([8]; pH 7.4, 37°C): 8 h | oral bioavailability of TFV [9]: 20% | TDF oral bioavailability following a high fat meal ([10]; after high fat meal): 39% | oral bioavailability of TFV ([10]; oral administration of TDF): under 30% | AUC [11]: 1490 ng·h/mL | half-life at 10 µM (in vitro [12]): 0.62 ± 1.29 min | half-life at 10 µM (in vitro [13]): 0.58 ± 1.79 min | pKa [14]: 3.75 | partition coefficient (log P) [14]: 1.25 | Biopharmaceutics Classification System class ([14]; high solubility and low permeability): class 3 | water solubility ([14]; room temperature): 15.3 mg/mL | oral bioavailability of TFV [15]: 30% | TDF Rate Constant (rat intestinal S9; rat S9 0.5 mg protein/mL, 10 μM TDF, 37°C, Buffer (no inhibitor)): -1.200 min⁻¹ | TDF Rate Constant (human intestinal S9; human S9 0.5 mg protein/mL, 10 μM TDF, 37°C, Buffer (no inhibitor)): -1.123 min⁻¹

C[C@H](Cn1cnc2c(N)ncnc21)OCP(=O)(O)O [TFV, tenofovir]
AUC (in vivo; read-out: TFV AUC, Mean): 3210 ng·h/mL | AUC (in vivo; read-out: TFV AUC, Median): 3200 ng·h/mL | TFV AUC, Median Fold Increase (in vivo; versus oral TDF Control): 2.85 fold | intracellular half-life (lymphocytes; activated lymphocytes): 720 to 900 min | intracellular half-life (lymphocytes; resting lymphocytes): 1980 to 3000 min

CC(C)OC(=O)OCOP(=O)(O)CO[C@H](C)Cn1cnc2c(N)ncnc21 [TFV-ME, tenofovir monophosphonate ester]
half-life in FaSSIF with PL ([4]; 10 μM, PL 480 U/mL): 38.0 ± 2.0 min | stability in SGF and FaSSIF [4]: stable | Efflux ratio (MDCK-MDR1 cells (P-gp); MDCK-MDR1, 0 μM GF918): 2.1 | Papp, A to B (MDCK-MDR1 cells (P-gp); MDCK-MDR1, 0 μM GF918, 120 min): 4.1 (0.20) nm/s | Papp, B to A (MDCK-MDR1 cells (P-gp); MDCK-MDR1, 0 μM GF918, 120 min): 8.8 (0.60) nm/s | Efflux ratio (MDCK-MDR1 cells (P-gp); MDCK-MDR1, 2 μM GF918): 0.9 | Papp, A to B (MDCK-MDR1 cells (P-gp); MDCK-MDR1, 2 μM GF918, 120 min): 5.3 (0.61) nm/s | Papp, B to A (MDCK-MDR1 cells (P-gp); MDCK-MDR1, 2 μM GF918, 120 min): 5.0 (0.58) nm/s
